Test system: DMS-114 complex spheroids with HUVEC/MSC, growth % test/control
Assay: Anticancer human tumor DMS-114 cell line growth inhibition [AhR];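 further: spheroids exposed to agents for 7 days before readout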;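 on viability, T/C: 100% = DMSO vehicle control wells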
Details: for IC50: curve of first compound; for viability, T/C: stronger effect = lower value
In short: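 Agents were dosed in half-log steps down from roughly clinical Cmax, or from 10 microM where Cmax was unknown, alone and with AhR antagonists. Read-out: percent test/control growth of tumor spheroids containing HUVEC and MSC stromal cells.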

[1] = second compound 0.1 µM, first compound 0.000949 µM
[2] = second compound 0.1 µM, first compound 0.003 µM
[3] = second compound 0.1 µM, first compound 0.00949 µM
[4] = second compound 0.1 µM, first compound 0.03 µM
[5] = second compound 0.1 µM, first compound 0.0949 µM
[6] = second compound 0.1 µM, first compound 0.3 µM
[7] = second compound 0.316 µM, first compound 0.000949 µM
[8] = second compound 0.316 µM, first compound 0.003 µM
[9] = second compound 0.316 µM, first compound 0.00949 µM
[10] = second compound 0.316 µM, first compound 0.03 µM
[11] = second compound 0.316 µM, first compound 0.0949 µM
[12] = second compound 0.316 µM, first compound 0.3 µM
[13] = second compound 1 µM, first compound 0.000949 µM
[14] = second compound 1 µM, first compound 0.003 µM
[15] = second compound 1 µM, first compound 0.00949 µM
[16] = second compound 1 µM, first compound 0.03 µM
[17] = second compound 1 µM, first compound 0.0949 µM
[18] = second compound 1 µM, first compound 0.3 µM
[19] = second compound 3.16 µM, first compound 0.000949 µM
[20] = second compound 3.16 µM, first compound 0.003 µM
[21] = second compound 3.16 µM, first compound 0.00949 µM
[22] = second compound 3.16 µM, first compound 0.03 µM
[23] = second compound 3.16 µM, first compound 0.0949 µM
[24] = second compound 3.16 µM, first compound 0.3 µM
[25] = second compound 10 µM, first compound 0.000949 µM
[26] = second compound 10 µM, first compound 0.003 µM
[27] = second compound 10 µM, first compound 0.00949 µM
[28] = second compound 10 µM, first compound 0.03 µM
[29] = second compound 10 µM, first compound 0.0949 µM
[30] = second compound 10 µM, first compound 0.3 µM
[31] = second compound 0.1 µM, first compound 0.0316 µM
[32] = second compound 0.1 µM, first compound 0.1 µM
[33] = second compound 0.1 µM, first compound 0.316 µM
[34] = second compound 0.1 µM, first compound 1 µM
[35] = second compound 0.1 µM, first compound 3.16 µM
[36] = second compound 0.1 µM, first compound 10 µM
[37] = second compound 0.316 µM, first compound 0.0316 µM
[38] = second compound 0.316 µM, first compound 0.1 µM
[39] = second compound 0.316 µM, first compound 0.316 µM
[40] = second compound 0.316 µM, first compound 1 µM
[41] = second compound 0.316 µM, first compound 3.16 µM
[42] = second compound 0.316 µM, first compound 10 µM
[43] = second compound 1 µM, first compound 0.0316 µM
[44] = second compound 1 µM, first compound 0.1 µM
[45] = second compound 1 µM, first compound 0.316 µM
[46] = second compound 1 µM, first compound 1 µM
[47] = second compound 1 µM, first compound 3.16 µM
[48] = second compound 1 µM, first compound 10 µM
[49] = second compound 3.16 µM, first compound 0.0316 µM
[50] = second compound 3.16 µM, first compound 0.1 µM
[51] = second compound 3.16 µM, first compound 0.316 µM
[52] = second compound 3.16 µM, first compound 1 µM
[53] = second compound 3.16 µM, first compound 3.16 µM
[54] = second compound 3.16 µM, first compound 10 µM
[55] = second compound 10 µM, first compound 0.0316 µM
[56] = second compound 10 µM, first compound 0.1 µM
[57] = second compound 10 µM, first compound 0.316 µM
[58] = second compound 10 µM, first compound 1 µM
[59] = second compound 10 µM, first compound 3.16 µM
[60] = second compound 10 µM, first compound 10 µM

CCc1c2c(nc3ccc(O)cc13)-c1cc3c(c(=O)n1C2)COC(=O)[C@]3(O)CC + CC(CO)NC(=O)c1cc(-c2ccc(Cl)cc2)nn(-c2cnn(C)c2)c1=O
IC50 (second compound 0.1 µM): 1.6 nM
IC50 (second compound 0.316 µM): 1.09 nM
IC50 (second compound 1 µM): < 0.949 nM
IC50 (second compound 3.16 µM): < 0.949 nM
IC50 (second compound 10 µM): < 0.949 nM
viability, T/C [1]: 56.4%
viability, T/C [2]: 42.4%
viability, T/C [3]: 23.2%
viability, T/C [4]: 17.5%
viability, T/C [5]: 17.7%
viability, T/C [6]: 16.2%
viability, T/C [7]: 51.4%
viability, T/C [8]: 40.4%
viability, T/C [9]: 21.2%
viability, T/C [10]: 15.8%
viability, T/C [11]: 15.7%
viability, T/C [12]: 15.4%
viability, T/C [13]: 49.4%
viability, T/C [14]: 37.8%
viability, T/C [15]: 21%
viability, T/C [16]: 15.4%
viability, T/C [17]: 18.8%
viability, T/C [18]: 17.6%
viability, T/C [19]: 47.9%
viability, T/C [20]: 31.5%
viability, T/C [21]: 20.7%
viability, T/C [22]: 13.9%
viability, T/C [23]: 15.3%
viability, T/C [24]: 16.6%
viability, T/C [25]: 43.5%
viability, T/C [26]: 35.9%
viability, T/C [27]: 22.4%
viability, T/C [28]: 15.1%
viability, T/C [29]: 15.7%
viability, T/C [30]: 16.6%

O=C(C=Cc1cccc(S(=O)(=O)Nc2ccccc2)c1)NO + Cc1cncc(-c2nc(NCCc3c[nH]c4ccccc34)c3ncn(C(C)C)c3n2)c1
IC50 (second compound 0.1 µM): 451 nM
IC50 (second compound 0.316 µM): 402 nM
IC50 (second compound 1 µM): 429 nM
IC50 (second compound 3.16 µM): 355 nM
IC50 (second compound 10 µM): < 31.6 nM
viability, T/C [31]: 100%
viability, T/C [32]: 91.9%
viability, T/C [33]: 59.5%
viability, T/C [34]: 27.5%
viability, T/C [35]: 11.7%
viability, T/C [36]: 9.54%
viability, T/C [37]: 84.3%
viability, T/C [38]: 77.7%
viability, T/C [39]: 55.4%
viability, T/C [40]: 28.3%
viability, T/C [41]: 10.2%
viability, T/C [42]: 9.73%
viability, T/C [43]: 90.1%
viability, T/C [44]: 80%
viability, T/C [45]: 59.2%
viability, T/C [46]: 26.9%
viability, T/C [47]: 10.7%
viability, T/C [48]: 9.6%
viability, T/C [49]: 78.8%
viability, T/C [50]: 75.5%
viability, T/C [51]: 52.8%
viability, T/C [52]: 21.3%
viability, T/C [53]: 8.43%
viability, T/C [54]: 7.76%
viability, T/C [55]: 46.9%
viability, T/C [56]: 34%
viability, T/C [57]: 20.1%
viability, T/C [58]: 9.92%
viability, T/C [59]: 4.09%
viability, T/C [60]: 4.15%

COc1cc(Nc2ncc3c(n2)-c2ccc(Cl)cc2C(c2c(F)cccc2OC)=NC3)ccc1C(=O)O + Cc1ccccc1N=Nc1ccc(NC(=O)c2ccnn2C)c(C)c1
IC50 (second compound 0.1 µM): > 10000 nM
IC50 (second compound 0.316 µM): > 10000 nM
IC50 (second compound 1 µM): > 10000 nM
IC50 (second compound 3.16 µM): > 10000 nM
IC50 (second compound 10 µM): < 31.6 nM
viability, T/C [31]: 63%
viability, T/C [32]: 57.5%
viability, T/C [33]: 106%
viability, T/C [34]: 108%
viability, T/C [35]: 123%
viability, T/C [36]: 107%
viability, T/C [37]: 55%
viability, T/C [38]: 56.8%
viability, T/C [39]: 108%
viability, T/C [40]: 115%
viability, T/C [41]: 111%
viability, T/C [42]: 98.4%
viability, T/C [43]: 58.1%
viability, T/C [44]: 53.3%
viability, T/C [45]: 104%
viability, T/C [46]: 107%
viability, T/C [47]: 102%
viability, T/C [48]: 106%
viability, T/C [49]: 52.3%
viability, T/C [50]: 50.6%
viability, T/C [51]: 103%
viability, T/C [52]: 95.8%
viability, T/C [53]: 106%
viability, T/C [54]: 95.8%
viability, T/C [55]: 44.7%
viability, T/C [56]: 42%
viability, T/C [57]: 84.7%
viability, T/C [58]: 87.1%
viability, T/C [59]: 85%
viability, T/C [60]: 76.3%

CCN(c1cc(-c2ccc(CN3CCOCC3)cc2)cc(C(=O)NCc2c(C)cc(C)[nH]c2=O)c1C)C1CCOCC1 + Cc1cncc(-c2nc(NCCc3c[nH]c4ccccc34)c3ncn(C(C)C)c3n2)c1
IC50 (second compound 0.1 µM): > 3000 nM
IC50 (second compound 0.316 µM): > 3000 nM
IC50 (second compound 1 µM): > 3000 nM
IC50 (second compound 3.16 µM): > 3000 nM
IC50 (second compound 10 µM): 361 nM
viability, T/C [3]: 92.9%
viability, T/C [4]: 97.4%
viability, T/C [5]: 92.9%
viability, T/C [6]: 92.6%
viability, T/C (second compound 0.1 µM, first compound 0.949 µM): 82.7%
viability, T/C (second compound 0.1 µM, first compound 3 µM): 70.8%
viability, T/C [9]: 94.9%
viability, T/C [10]: 89.3%
viability, T/C [11]: 109%
viability, T/C [12]: 90.5%
viability, T/C (second compound 0.316 µM, first compound 0.949 µM): 78.9%
viability, T/C (second compound 0.316 µM, first compound 3 µM): 59%
viability, T/C [15]: 99.1%
viability, T/C [16]: 101%
viability, T/C [17]: 95.9%
viability, T/C [18]: 91.2%
viability, T/C (second compound 1 µM, first compound 0.949 µM): 76.6%
viability, T/C (second compound 1 µM, first compound 3 µM): 68.8%
viability, T/C [21]: 99.3%
viability, T/C [22]: 97.8%
viability, T/C [23]: 90%
viability, T/C [24]: 92%
viability, T/C (second compound 3.16 µM, first compound 0.949 µM): 74.8%
viability, T/C (second compound 3.16 µM, first compound 3 µM): 63.5%
viability, T/C [27]: 58.2%
viability, T/C [28]: 55.2%
viability, T/C [29]: 54.3%
viability, T/C [30]: 50.9%
viability, T/C (second compound 10 µM, first compound 0.949 µM): 45.7%
viability, T/C (second compound 10 µM, first compound 3 µM): 46.4%

CC(C)CC(NC(=O)C(Cc1ccccc1)NC(=O)c1cnccn1)B(O)O (stereo not given) + Cc1ccccc1N=Nc1ccc(NC(=O)c2ccnn2C)c(C)c1
IC50 (second compound 0.1 µM): 5.5 nM
IC50 (second compound 0.316 µM): 6.01 nM
IC50 (second compound 1 µM): 5.87 nM
IC50 (second compound 3.16 µM): 6.14 nM
IC50 (second compound 10 µM): 5.59 nM
viability, T/C [1]: 90.3%
viability, T/C [2]: 93.9%
viability, T/C [3]: 12.1%
viability, T/C [4]: 0.2%
viability, T/C [5]: 0.1%
viability, T/C [6]: 0.22%
viability, T/C [7]: 101%
viability, T/C [8]: 99.9%
viability, T/C [9]: 17.2%
viability, T/C [10]: 0.18%
viability, T/C [11]: 0.05%
viability, T/C [12]: 0.48%
viability, T/C [13]: 94.7%
viability, T/C [14]: 94.6%
viability, T/C [15]: 18.1%
viability, T/C [16]: 0.41%
viability, T/C [17]: 0.28%
viability, T/C [18]: 0.18%
viability, T/C [19]: 89.9%
viability, T/C [20]: 97.8%
viability, T/C [21]: 23.4%
viability, T/C [22]: 0.28%
viability, T/C [23]: 1.08%
viability, T/C [24]: 0.24%
viability, T/C [25]: 94.3%
viability, T/C [26]: 88.7%
viability, T/C [27]: 17.1%
viability, T/C [28]: 0.65%
viability, T/C [29]: 0.6%
viability, T/C [30]: 0.32%

From PubChem BioAssay AID1919008 (Molecular Pharmacology Branch, DTP, NCI, 2023)
